# Measurements reported in patent US20240385187A1, “BI-[…] REPORTER PARTICLE AND METHODS FOR MAKING AND USING THE SAME” (The Trustees of Indiana University, priority 2021, published 2024).
# Test system: phagosomes of RAW264.7 macrophage cells
# Experiment: Effect of V-ATPase inhibition on phagosome acidification and proteolysis, monitored in single phagosomes with Janus pH-proteolysis reporter particles
# Assay type: cell-based
# Details: for duration of proteolysis: onset of proteolysis to start of Rhodamine 110 intensity decrease, without ConA 24±10
# Description: Dual color imaging started 5 minutes after Janus particle probes were added to cells and lasted for approximately 45 minutes. After particle internalization, the fluorescence intensity of the pH reporter increased first, followed by a similar intensity increase of the proteolysis reporter, indicating the progress of maturation (FIG. 6A). It was noted that some […] slowly diffused into the cell cytoplasm by the end of imaging, causing a slightly elevated fluorescence in the cell. This is expected because small dye molecules can passively diffuse across the phagosome membrane.
# ConcanamycinA (ConA), a V-ATPase inhibitor, was added to disrupt acidification of phagosomes and its effect on proteolytic activities was monitored. […] The fluorescence decrease was caused by the continuous diffusion of Rhodamine 110, already in the phagosome lumen prior to the ConA addition, into the cell cytoplasm. After ConA addition, Rhodamine 110 lost by diffusion was not replaced by the generation of more.
# To quantify the effect of ConA on proteolysis, duration of proteolysis was measured. In cells without ConA treatment, this was measured as the time from the onset of proteolysis (tproteolysis) to the start of the intensity plateau. In cells treated with ConA, this was measured as the time from the onset of proteolysis (tproteolysis) to the time when the Rhodamine 110 intensity started to decrease (FIG. 7C). Phagosome proteolysis in cells without ConA treatment lasted for 24±10 minutes on average (FIG. 7C). However, the duration of proteolysis was shorted to 16±5 minutes in the presence of 100 nM ConA and 10±4 minutes with 500 nM ConA.
# In all phagosomes examined (N=21), proteolysis stopped within a short time after termination of acidification. […] This is consistent with the observation noted above that proteolysis started when the phagosome acidified to a threshold pH of 5.8±0.7. […] With the Janus reporter particle, it was identified that an acidic lumen is a prerequisite for the start of proteolytic activities in phagosomes, and their temporal relationship inside single phagosomes was quantitatively determined; data impossible to obtain by prior methods. Thus the bifunctional Janus pH-proteolysis reporter particle was able to detect both a disruption in phagosome acidification and a disruption in proteolytic activity inside a single phagosome caused by the presence of the V-ATPase inhibitor ConA.
# Carboxylate polystyrene particles (500 nm) were purchased from Polysciences (Warrington, PA, USA). CF™ 640R NHS ester (succinimidyl ester), fluorescent peptide Rhodamine 110, bis-(N-CBZ-L-phenylalanyl-L-arginine amide) dihydrochloride (Z-FR-R110) were purchased from Biotium (Fremont, CA, USA). Amine-functionalized polystyrene particle (3 μm), carboxylated fluorophores (500 nm, ex/em 580/605), Alexa Fluor 568 NHS ester (succinimidyl ester), Alexa Fluor 647 NHS ester (succinimidyl ester), pHrodo™ iFL Red STP Ester, EZ-Link™ NHS-Biotin, sulfo-NHS (N-succinimidyl ester), streptavidin, and lipopolysaccharides from Escherichia coli (LPS) were purchased from ThermoFisher Scientific (Waltham, MA, USA). Bovine serum albumin (BSA), trypsin, nigericin sodium salt, and immunoglobulin G (IgG) from rabbit plasma were purchased from MilliporeSigma (St. Louis, MO, USA). 1-(3-Dimethylaminopropyl)-3-ethylcarbodiimide hydrochloride (EDC) was purchased from Alfa Aesar (Haverhill, MA, USA). Biotin pentylamine was purchased from Soltec BioScience (Beveraly MA). Concanamycin A was purchased from Santa Cruz Biotechnology (Dallas, TX, USA). Raw 264.7 macrophage cells were purchased from ATCC (Manassas, VA, USA). Ringer's solution (pH=7.2, 10 mM HEPES, 10 mM glucose, 155 mM NaCl, 2 mM NaH2PO4, 5 mM KCl, 2 mM CaCl2, 1 mM MgCl2) was used for live-cell imaging. Potassium-rich solution (135 mM KCl, 2 mM […], 1.2 mM CaCl2, 0.8 mM MgSO4) was used for intracellular pH calibration. […]
structure (smiles),measurement,setting,value
"C/C=C/[C@H]1O[C@@](O)([C@@H](C)[C@H](O)[C@H](C)[C@H]2OC(=O)/C(OC)=C/C(C)=C/[C@@H](C)[C@@H](O)[C@@H](CC)[C@@H](O)[C@H](C)C/C(C)=C/C=C/[C@@H]2OC)C[C@@H](O[C@H]2C[C@@H](O)[C@H](OC(N)=O)[C@@H](C)O2)[C@@H]1C [ConA, Concanamycin A]",phagosome acidification and proteolytic activity,100 nM ConA added to cells before the onset of acidification,failed to acidify or exhibit proteolytic activities
same,duration of proteolysis,"100 nM ConA, N=11",16 ± 5 min
same,duration of proteolysis,"500 nM ConA, N=10",10 ± 4 min
same,phagosome proteolysis (Rhodamine 110 fluorescence),"ConA added after acidification had started, within minutes after acidification stopped",phagosome proteolysis also stopped
same,phagosome acidification,"ConA added to cells after acidification had started, lumen pH started to increase",stopped acidifying
same,average pH of single phagosomes at the termination point of proteolysis,"ConA-treated cells, N=21 phagosomes",5.1±0.4
